Experimental data as given in PMC6282106, “Commercial drugs containing flavonoids are active in mice with malaria and in vitro against chloroquine-resistant Plasmodium falciparum” (Memórias do Instituto Oswaldo Cruz, 2018).
Values after ≈ are worked out from the molar mass of the structure shown. Read-outs that look alike come from different tables or passages of the source.

Tests used:
[1] = system: Plasmodium falciparum chloroquine-resistant clone (W2); experiment: microbe, parasite or virus in culture; type: cell-based; settings: for In vitro activity against P. falciparum, in words: P. falciparum W2; for IC50: Plasmodium falciparum, W2, P. falciparum W2, anti-HRPII test, read-out: IC50 (dose inhibiting 50% of parasite growth), mean ± SD
Plasmodium berghei NK65 = experiment: Antimalarial suppressive test in mice infected with P. berghei; settings: for Activity in P. berghei-infected mice, in words: 50 mg/kg by oral route, Table IV experiment
[2] = BGM cells, 24 h, MTT, mean of 3-5 experiments
[3] = P. falciparum W2, anti-HRPII test, mean of 3-5 experiments
[4] = Table V experiment, chloroquine 15 mg/kg
[5] = Table VI, chloroquine 1.25 mg/kg
[6] = Table VI, chloroquine 2.5 mg/kg
[7] = chloroquine at subcurative doses, dose not given
[8] = Table IV, 50 mg/kg oral, daily for three days
[9] = Table IV, 50 mg/kg oral, daily for three days, vs untreated controls

## O=c1c(-c2ccc(O)cc2)coc2cc(O)cc(O)c12 [Genistein]
BGM cell line; [2]
  MDL50 (minimum lethal dose for 50% of cells), mean ± SD: ≥ 1000 µg/mL
[1]; BGM MDL50 / P. falciparum W2 IC50, toxicity considered at SI < 10
  Selectivity index (SI) MDL50 / IC50: Inactive
[1]
  In vitro activity against P. falciparum, in words: no activity
[1]; [3]
  IC50 (dose inhibiting 50% of parasite growth), mean ± SD: 28.8 ± 18.0 µg/mL
[1]; mean of 3-5 experiments
  IC50: > 25 µg/mL

## [O]=[Zn] [Zinc oxide]
BGM cell line; [2]
  MDL50 (minimum lethal dose for 50% of cells), mean ± SD: ≥ 1000 µg/mL
[1]
  In vitro activity against P. falciparum, in words: reduced the P. falciparum parasite growth
[1]; [3]
  IC50 (dose inhibiting 50% of parasite growth), mean ± SD: 2.7 ± 1.4 µg/mL

## CC1=C(/C=C/C(C)=C/C=C/C(C)=C/C=C/C=C(C)/C=C/C=C(C)/C=C/C2=C(C)CCCC2(C)C)C(C)(C)CCC1 [Beta carotene]
BGM cell line; [2]
  MDL50 (minimum lethal dose for 50% of cells), mean ± SD: ≥ 1000 µg/mL
[1]
  Selectivity index (SI) MDL50 / IC50: ≥ 71.4
  In vitro activity against P. falciparum, in words: reduced the P. falciparum parasite growth
[1]; mean of 3-5 experiments
  IC50: 14 ± 3.1 µg/mL (≈ 26.1 µM)

## CC(=O)N[C@@H](CS)C(=O)O [N-Acetylcysteine]
BGM cell line
  MDL50 (minimum lethal dose for 50% of cells), mean ± SD: ≥ 1000 µg/mL
[1]; [3]
  IC50 (dose inhibiting 50% of parasite growth), mean ± SD: ≥ 50 µg/mL

## Cc1cc2nc3c(=O)[nH]c(=O)nc-3n(C[C@H](O)[C@H](O)[C@H](O)CO)c2cc1C [Riboflavin]
BGM cell line; [2]
  MDL50 (minimum lethal dose for 50% of cells), mean ± SD: ≥ 1000 µg/mL
[1]
  In vitro activity against P. falciparum, in words: reduced the P. falciparum parasite growth
[1]; mean of 3-5 experiments
  IC50: 8.1 ± 4 µg/mL (≈ 21.5 µM)

## [Se] [Selenium]
[1]; [3]
  IC50 (dose inhibiting 50% of parasite growth), mean ± SD: ≥ 50 µg/mL

## CCN(CC)CCCC(C)Nc1ccnc2cc(Cl)ccc12 (stereo not drawn) [Chloroquine]
[1]; mean of 3-5 experiments
  IC50: 0.175 ± 0.02 µg/mL (≈ 0.547 µM)
Plasmodium berghei NK65; Table IV, chloroquine 20 mg/kg
  % Reduction of parasitaemia, 5th day: 100%
  % Reduction of parasitaemia, 7th day: 100%
  Survival (average ± SD): 24 ± 5
  mean parasitaemia ± SD, 5th day: 0.0 ± 0.0
  mean parasitaemia ± SD, 7th day: 0.0 ± 0.0
Plasmodium berghei NK65; [4]
  % Reduction of parasitaemia, 7th day: 65%
  Survival (average ± SD): 24 ± 5
  mean parasitaemia ± SD, 5th day: 0.0 ± 0.0
  mean parasitaemia ± SD, 7th day: 2.9 ± 1.1
Plasmodium berghei NK65; Table V experiment, chloroquine 15 mg/kg, sub-curative
  % Reduction of parasitaemia, 5th day: 100%
Plasmodium berghei NK65; [5]
  % Reduction of parasitaemia, 5th day: 93%
  % Reduction of parasitaemia, 7th day: 49%
  % Reduction of parasitaemia, 9th day: 56%
  Survival (average ± SD): 19 ± 4
  mean parasitaemia ± SD, 5th day: 0.1 ± 0.03%
  mean parasitaemia ± SD, 7th day: 7.6 ± 3.3%
  mean parasitaemia ± SD, 9th day: 5.1 ± 0.1%
Plasmodium berghei NK65; [6]
  % Reduction of parasitaemia, 5th day: 95%
  % Reduction of parasitaemia, 7th day: 79%
  % Reduction of parasitaemia, 9th day: 29%
  Survival (average ± SD): 20 ± 9
  mean parasitaemia ± SD, 5th day: 0.01 ± 0.1%
  mean parasitaemia ± SD, 7th day: 3.1 ± 5.3%
  mean parasitaemia ± SD, 9th day: 8.4 ± 4.5%
Plasmodium berghei NK65; Table VI, chloroquine 5 mg/kg
  % Reduction of parasitaemia, 5th day: 94%
  % Reduction of parasitaemia, 7th day: 69%
  % Reduction of parasitaemia, 9th day: 57%
  Survival (average ± SD): 24 ± 4
  mean parasitaemia ± SD, 5th day: 0.0 ± 0.1%
  mean parasitaemia ± SD, 7th day: 4.7 ± 4.0%
  mean parasitaemia ± SD, 9th day: 5.1 ± 3.1%
Plasmodium berghei NK65; [7]
  Reduction of parasitaemia, day 5: 95%
  Reduction of parasitaemia, day 7: 79%

## CC(=O)Oc1c(C)c(C)c2c(c1C)CCC(C)(CCC[C@H](C)CCC[C@H](C)CCCC(C)C)O2 (stereo partly drawn) [Tocopherol acetate]
BGM cell line; [2]
  MDL50 (minimum lethal dose for 50% of cells), mean ± SD: ≥ 1000 µg/mL
[1]
  Selectivity index (SI) MDL50 / IC50: Inactive
[1]; mean of 3-5 experiments
  IC50: ≥ 50 µg/mL

## O=C1O[C@H]([C@@H](O)CO)C(O)=C1O [Ascorbic acid]
[1]; mean of 3-5 experiments
  IC50: ≥ 50 µg/mL

## O=c1c(O)c(-c2ccc(O)c(O)c2)oc2cc(O)cc(O)c12 [Quercetin]
BGM cell line; [2]
  MDL50 (minimum lethal dose for 50% of cells), mean ± SD: ≥ 1000 µg/mL
[1]
  Selectivity index (SI) MDL50 / IC50: ≥ 76.9
  In vitro activity against P. falciparum, in words: most active flavonoid
[1]; mean of 3-5 experiments
  IC50: 13 ± 8.4 µg/mL (≈ 43 µM)
Plasmodium berghei NK65
  Activity in P. berghei-infected mice, in words: best standard flavonoid
Plasmodium berghei NK65; [8]
  Survival (average ± SD): 22 ± 6
  mean parasitaemia ± SD, 5th day: 4.7 ± 4.0
  mean parasitaemia ± SD, 7th day: 8.3 ± 5.1
Plasmodium berghei NK65; [9]
  % Reduction of parasitaemia, 7th day: 44%
Plasmodium berghei NK65; Table IV, 50 mg/kg oral, daily for three days, vs untreated controls, 50 mg/kg
  % Reduction of parasitaemia, 5th day: 52%

## COc1ccc([C@@H]2CC(=O)c3c(O)cc(O[C@@H]4O[C@H](CO[C@@H]5O[C@@H](C)[C@H](O)[C@@H](O)[C@H]5O)[C@@H](O)[C@H](O)[C@H]4O)cc3O2)cc1O [Hesperidin]
BGM cell line; [2]
  MDL50 (minimum lethal dose for 50% of cells), mean ± SD: ≥ 1000 µg/mL
[1]
  In vitro activity against P. falciparum, in words: no activity
[1]; [3]
  IC50 (dose inhibiting 50% of parasite growth), mean ± SD: ≥ 50 µg/mL
[1]; P. falciparum W2, anti-HRPII test, mean of 3-5 experiments, listed as hesperidin
  IC50 (dose inhibiting 50% of parasite growth), mean ± SD: > 25 µg/mL
Plasmodium berghei NK65
  Activity in P. berghei-infected mice, in words: slightly active
Plasmodium berghei NK65; [8]
  Survival (average ± SD): 20 ± 3
  mean parasitaemia ± SD, 5th day: 5.2 ± 0.8
  mean parasitaemia ± SD, 7th day: 9.1 ± 1.3
Plasmodium berghei NK65; [9]
  % Reduction of parasitaemia, 5th day: 47%
  % Reduction of parasitaemia, 7th day: 38%

## N[C@@H](CCC(=O)N[C@@H](CS)C(=O)NCC(=O)O)C(=O)O [L-Glutathione]
BGM cell line
  MDL50 (minimum lethal dose for 50% of cells), mean ± SD: ≥ 1000 µg/mL
[1]
  IC50 (dose inhibiting 50% of parasite growth), mean ± SD: ≥ 50 µg/mL
